Like-named read-outs stand apart in the source and are kept apart here.
Tests used:
Assay type in all cases: in vivo
[1] = test system: Pseudaletia separate Walker; assay: Insecticidal activities to armyworm, leaf dipping and feeding
Outline: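 Armyworms (10 per tumbler, 3 replicates) ate fresh maize leaves that had been immersed for 3 seconds in compound solutions of 1.57-500 ppm in acetone, or in aqueous acetone for controls. Kills were scored at 24 h, and mortality was calculated relative to survivors in the control group.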

[2] = test system: Nilaparvata lugens; assay: Insecticidal activities to plant hopper, spraying method; conditions: for Nilaparvata lugens Mortality (%) 500 ppm: in vivo; for mortality at 500 ppm: Nilaparvata lugens, read-out: Nilaparvata lugens Mortality (%) 500 ppm
Outline: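 Spray test: acetone solutions of 500 down to 0.79 ppm, 2 ml per tumbler holding 10 planthoppers introduced 6 h earlier, triplicate, aqueous acetone as control. Mortality at 24 h calculated from survivors relative to control.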

[3] = test system: Plutella xylostella; assay: Insecticidal activities to diamondback moth, feeding dipped leaves; conditions: for Plutella xylostella Mortality (%) 500 ppm: in vivo; for mortality at 500 ppm: Plutella xylostella, read-out: Plutella xylostella Mortality (%) 500 ppm
Outline: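 Mortality was scored 24 h after larvae of Plutella xylostella (10 per treatment, 3 repeats) fed on cabbage leaves immersed 3 s in test solution and dried at room temperature. It was computed relative to survivors in a water-treated control.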

[4] = test system: Aphis craccivoral; assay: Insecticidal activities to aphids, immersion method; conditions: for Aphis craccivoral Mortality (%) 500 ppm: in vivo; for mortality at 500 ppm: Aphis, read-out: Aphis craccivoral Mortality (%) 500 ppm
Outline: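 Immersion assay: compound diluted from 10 g/L DMF stock to 500 ppm in 0.2 mL/L Triton X-100, sprout-feeding wingless adults dipped 5 s. Kept at 23° C, three repeats; 24 h mortality calculated relative to surviving Triton-treated controls.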

Compound	Pseudaletia separate Walker Mortality (%) 500 ppm ([1]; in vivo)	Nilaparvata lugens Mortality (%) 500 ppm [2]	Plutella xylostella Mortality (%) 500 ppm [3]	Aphis craccivoral Mortality (%) 500 ppm [4]	also measured
CCc1ccc(C=C(C2=[N+](C)CCN2Cc2ccc(Cl)nc2)[N+](=O)[O-])o1.[Cl-] [Compound 257]	100%	100%	100%	100%	–
CC(c1ccc(Cl)nc1)N1CCN=C1C(=Cc1ccc(Br)o1)[N+](=O)[O-] (racemic) [Compound 126]	100%	100%	100%	100%	–
O=[N+]([O-])C(=Cc1ccc([N+](=O)[O-])o1)C1=NCCN1Cc1ccccc1 [Compound 105]	98%	100%	90%	80%	–
O=[N+]([O-])C(=Cc1oc(Br)cc1Br)C1=NCCN1Cc1ccc(Cl)nc1 [Compound 11]	100%	100%	100%	100%	–
N#CC(=Cc1cc(Br)cs1)C1=NCCN1Cc1ccc(Cl)nc1 [Compound 148]	100%	100%	100%	97%	–
CC[N+]1=C(C(=Cc2ccc([N+](=O)[O-])o2)[N+](=O)[O-])N(Cc2ccc(Cl)nc2)CC1.[Cl-] [Compound 287]	100%	100%	100%	100%	–
O=[N+]([O-])C(=Cc1ccc([N+](=O)[O-])o1)C1=NCCN1CC1CCOC1 (centres unmarked) [Compound 93]	100%	87%	96%	78%	–
CC(=C(C1=NCCN1Cc1ccc(Cl)nc1)[N+](=O)[O-])c1ccoc1 [Compound 112]	68%	76%	53%	56%	–
O=[N+]([O-])C(=Cc1ccc(Cl)o1)C1=NCCN1CC1CCOC1 (centres unmarked) [Compound 94]	77%	77%	83%	46%	–
N#CC(=Cc1ccco1)C1=NCCN1Cc1ccc(Cl)nc1 [Compound 140]	100%	100%	100%	100%	–
O=[N+]([O-])C(=Cc1cc(Cl)co1)C1=NCCN1Cc1ccccc1 [Compound 106]	59%	87%	75%	91%	–
CC[N+]1=C(C(=Cc2ccc(Cl)s2)[N+](=O)[O-])N(Cc2ccc(Cl)nc2)CC1.[Cl-] [Compound 294]	100%	100%	100%	100%	–
CC(=C(C1=NCCN1Cc1ccc(Cl)nc1)[N+](=O)[O-])c1ccc([N+](=O)[O-])o1 [Compound 113]	100%	100%	100%	80%	–
C[N+]1=C(C(=Cc2ccc(Cl)o2)[N+](=O)[O-])N(Cc2ccc(Cl)nc2)CC1.[Cl-] [Compound 247]	100%	100%	100%	100%	–
C[N+]1=C(C(=Cc2ccc(Cl)s2)[N+](=O)[O-])N(Cc2cnc(Cl)s2)CC1.[Cl-] [Compound 283]	100%	100%	100%	100%	–
O=[N+]([O-])/C(=C/c1ccco1)C1=NCCN1CC1CCOC1 (centres unmarked) [Compound 91, 2-(2-(furan-2-yl)-1-nitrovinyl)-1-((tetrahydrofuran-3-yl)methyl)-4,5-dihydro-1H-imidazole]	–	–	–	–	Pseudaletia separate Walker Mortality (%) 500 ppm ([1]; 500 ppm, leaf dipping and feeding, counted after 24 hours): 98%; mortality at 500 ppm ([2]; 24 h): 100%; mortality at 500 ppm ([3]; 24 h): 100%; mortality at 500 ppm [4]: 87%
C[N+]1=C(C(=Cc2cc(Cl)c(Cl)o2)[N+](=O)[O-])N(Cc2ccc(Cl)nc2)CC1.[Cl-] [Compound 251]	100%	100%	100%	100%	–
CC(=C(C1=NCCN1Cc1ccc(Cl)nc1)[N+](=O)[O-])c1ccc([N+](=O)[O-])s1 [Compound 117]	77%	88%	86%	83%	–
CCN(Cc1ccc(Cl)nc1)C(=N\C)/C(=C\c1ccc[nH]1)[N+](=O)[O-] [Compound 160, N-((6-chloropyridin-3-yl)methyl)-N-ethyl-N′-methyl-2-nitro-3-(1H-pyrrol-2-yl) acrylamidine]	–	–	–	–	mortality at 500 ppm ([1]; Zea mays, foliar, 500 ppm, dipped maize leaves fed, counted after 24 hours, read-out: Pseudaletia separate Walker Mortality (%) 500 ppm): 64%; mortality at 500 ppm ([2]; 500 ppm, spraying, counted after 24 hours): 54%; mortality at 500 ppm ([3]; 500 ppm, dipped cabbage leaves fed, counted after 24 hours): 100%; mortality at 500 ppm ([4]; 500 ppm, immersion 5 seconds, counted after 24 hours): 56%
C[N+]1=C(C(=Cc2ccc(Cl)s2)[N+](=O)[O-])N(Cc2ccc(Cl)nc2)CC1.[Cl-] [Compound 262]	100%	100%	100%	100%	–
CC(c1ccc(Cl)nc1)N1CCN=C1C(=Cc1ccc(Cl)s1)[N+](=O)[O-] (racemic) [Compound 130]	100%	100%	76%	100%	–
O=[N+]([O-])C(=Cc1ccc[nH]1)C1=NCCN1Cc1ccc(Cl)nc1 [Compound 31]	100%	100%	100%	100%	–
O=[N+]([O-])C(=Cc1cc(Br)c(Br)o1)C1=NCCN1Cc1cnc(Cl)s1 [Compound 77]	100%	100%	100%	100%	–
Cc1ccc(C=C(C2=NCCN2Cc2ccc(Cl)nc2)[N+](=O)[O-])s1 [Compound 27]	100%	100%	100%	100%	–
Cc1csc(C=C(C2=[N+](C)CCN2Cc2ccc(Cl)nc2)[N+](=O)[O-])c1.[Cl-] [Compound 271]	100%	100%	100%	100%	–
Cc1ccc(C=C(C2=NCCCN2Cc2ccc(Cl)nc2)[N+](=O)[O-])o1 [Compound 57]	100%	78%	100%	100%	–

Source: patent US8232407B2, “Nitrogenous heterocyclic compounds with insecticidal activity, and the preparation and use thereof” (East China University of Science and Technology, priority 2008, dated 2012)
